This is an account of results in patent publication US12121026B1, “N-[(1-phenyl-4H-1,2,4-triazol-3-yl) carbamothioyl]benzamide as an eco-friendly insecticidal agent against spodoptera littoralis” (KING FAISAL UNIVERSITY, priority 2023, dated 2024).

SMILES strings stand for the structures. ≈ marks a conversion by molar mass, not a printed value. Where two headings read alike, the source gives them in different places.

This test deals with second and fourth instars larvae of the laboratory strain of cotton leafworm, S. littoralis. Description: Insecticidal bioassay screening (castor leaf dip). The test is classed as in vivo. Particulars: for Toxicity index %: 72 hrs, Diflubenzuron's LC50/compound's LC50 x100; for LC90 (mg/L) at 95%: after 72 hrs of treatment; for LC50: Spodoptera littoralis, foliar. As for the experimental part: Five concentrations (200, 100, 50, 25, 12.5 ppm) were designed for this synthetic compound and the reference Diflubenzuron compound as the dynamic ingredients based on ppm via diluting the commercial formulation.
In this experiment, castor leaves are immersed in each of the previously prepared concentrations of the components for 10 seconds and then left to dry for 60 minutes. Larvae of the second and fourth instars of each checked strain are prepared with treated leaves in gauze-covered glass containers for 72 hrs. An untreated control is made in which leaves are dipped in triton x-100 and distilled water only. Then the preserved leaves were removed & fresh, untreated leaves were provided for 72 hours. Three replicates (10 larvae each) were checked for each concentration. Daily inspection was carried out for all treatments and mortality percentages were recorded 3 days (72 hours) after treatment. The average mortality percentage was corrected employing Abbott's formula. The corrected mortality rate for each of the previously synthesized compounds is statistically calculated according to Finney (1970). Through this rate, the corresponding concentration test lines (LDP lines) are assessed.

Where [1] appears, read: 72 h, read-out: LC50 (mg/L) at 95%, 2nd instar larvae, after 72 hrs of treatment.
Setting [2] is: 72 h, read-out: LC50 (mg/L) at 95%, 4th instar larvae, after 72 hrs of treatment.
[3] abbreviates: against Spodoptera littoralis under laboratory conditions, instar not stated.

Regarding `O=C(NC(=S)Nc1ncn(-c2ccccc2)n1)c1ccccc1` [Compound 1, N-[(1-phenyl-1H-1,2,4-triazol-3-yl)carbamothioyl]benzamide], the Toxicity index % reads like this: (2nd instar larvae) 22.8%; (4th instar larvae) 36.7%. For the same compound, the “LC90 (mg/L) at 95%” value is reported as 1733.6 mg/L (≈ 5360 µM) (2nd instar larvae); “about 1733.6 mg/L” (2nd instar larvae, listed as N-[(1-phenyl-4H-1,2,4-triazol-3-yl)carbamothioyl]benzamide); 4090.2 mg/L (≈ 12600 µM) (4th instar larvae); “about 4090.2 mg/L” (4th instar larvae, listed as N-[(1-phenyl-4H-1,2,4-triazol-3-yl)carbamothioyl]benzamide). The LC50 is about 198 mg/L (≈ 613 µM) under setting [1], about 392 mg/L (≈ 1210 µM) under setting [2] and 198 mg/L (≈ 613 µM) under setting [3].
As to `O=C(NC(=O)c1c(F)cccc1F)Nc1ccc(Cl)cc1` [Diflubenzuron, reference compound], the Toxicity index % is 100% (2nd instar larvae) and 100% (4th instar larvae). For the same compound, the “LC90 (mg/L) at 95%” value reads like this: (2nd instar larvae) 520.0 mg/L (≈ 1670 µM); (4th instar larvae) 1540.5 mg/L (≈ 4960 µM). The LC50 runs as follows: under setting [1], 45.2 mg/L (≈ 145 µM); under setting [2], 144 mg/L (≈ 464 µM); under setting [3], 45.2 mg/L (≈ 145 µM).
